Assay results published in patent US20040242591A1, “Oxazolidinone derivatives as pontential antimicrobials” (priority 2001, published 2004).

How the values were obtained:
Ent. faecalis ATCC 29212 = assay: MIC by agar incorporation method, E.faecalis 29212; type: cell-based, Enterococcus faecalis; set-up: unit not given here; details: Mueller Hinton agar, 10^4 CFU/spot, 18 hours
From the text: 3) Ent. faecalis ATCC 29212—Enterococcus faecalis ATCC 29212

Strep. pne. ATCC 6303 = assay: MIC by agar incorporation method, S. pneum 6303; type: cell-based, Streptococcus pneumoniae; details: Mueller Hinton agar, 10^4 CFU/spot, 18 hours
From the text: 5) Strep. pne. ATCC 6303—Streptococcus pneumoniae ATCC 6303

VRE 6A = assay: MIC by agar incorporation method, VRE 6A; type: cell-based, Enterococcus faecium; set-up: unit not given here; details: Mueller Hinton agar, 10^4 CFU/spot, 18 hours
From the text: 4) Ent. faecium […]—Enterococcus faecium 6A Van®, Cipro®

MRSA 33 = assay: MIC by agar incorporation method, MRSA 33; type: cell-based, Methicillin Resistant Staphylococcus aureus; set-up: unit not given here; details: Mueller Hinton agar, 10^4 CFU/spot, 24 hours
S. pneum AB 34 = assay: MIC by agar incorporation method, S. pneum AB 34; type: cell-based, Streptococcus pneumoniae; set-up: unit not given here; details: Mueller Hinton agar, 10^4 CFU/spot, 18 hours
S.aureus ATCC 25923 = assay: MIC by agar incorporation method, S.aureus 25923; type: cell-based, Staphylococus aureus; set-up: unit not given here; details: Mueller Hinton agar, 10^4 CFU/spot, 18 hours
MRSA 15187 = assay: MIC by agar incorporation method, MRSA 15187; type: cell-based, Methicillin Resistant Staphylococcus aureus; set-up: unit not given here; details: Mueller Hinton agar, 10^4 CFU/spot, 24 hours
From the text: 2) MRSA 15187—Methicillin Resistant Staphylococcus aureus

Strep.pyog. ATCC 19615 = assay: MIC by agar incorporation method, S.pyogenes 19615; type: cell-based, Streptococcus pyogenes; set-up: unit not given here; details: Mueller Hinton agar, 10^4 CFU/spot, 18 hours
From the text: 6) Strep.pyog. ATCC 19615—Streptococcus pyogenes

MRSA 562 = assay: MIC by agar incorporation method, MRSA 562; type: cell-based, Methicillin Resistant Staphylococcus aureus; set-up: unit not given here; details: Mueller Hinton agar, 10^4 CFU/spot, 24 hours

Row | SMILES | In Vitro (MIC) E.faecalis 29212 (Ent. faecalis ATCC 29212) | In Vitro (MIC) S. pneum 6303 (Strep. pne. ATCC 6303) | In Vitro (MIC) VRE 6A (VRE 6A) | In Vitro (MIC) MRSA 33 (MRSA 33) | In Vitro (MIC) S. pneum AB 34 (S. pneum AB 34) | In Vitro (MIC) S.aureus 25923 (S.aureus ATCC 25923) | In Vitro (MIC) MRSA 15187 (MRSA 15187) | In Vitro (MIC) S.pyogenes 19615 (Strep.pyog. ATCC 19615) | In Vitro (MIC) MRSA 562 (MRSA 562)
1 | CC(Cl)C(=O)NC[C@H]1CN(c2ccc(N3CCN(Cc4cc(Br)c([N+](=O)[O-])s4)CC3)c(F)c2)C(=O)O1 (stereo partly drawn) [Compound No. 51] | 8 | 16 µg/mL | 8 | 8 | 16 | 8 | 8 | 16 | 8
2 | CC(=O)NC[C@H]1CN(c2ccc(N3CCN(Cc4ccc([N+](=O)[O-])[nH]4)CC3)c(F)c2)C(=O)O1 [Compound No. 13, (S)-N-[[3-[3-Fluoro-4-[N-1-[4-{2-pyrrole-(5-nitro)methyl}]piperazinyl]phenyl]-2-oxo-5-oxazolidinyl]methyl]acetamide] | 4 | 4 µg/mL | 4 | 4 | 4 | 4 | 2 | 1 | 4
3 | CC(=O)NC[C@H]1CN(c2ccc(N3CCN(Cc4ccc([N+](=O)[O-])n4C)CC3)c(F)c2)C(=O)O1 [Compound No. 12, (S)-N-[[3-[3-Fluoro-4-[N-1-[4-{2-pyrrole-(1-methyl-5-nitro)methyl}]piperazinyl]phenyl]-2-oxo-5-oxazolidinyl]methyl]acetamide] | 4 | 8 µg/mL | 4 | 4 | 8 | 4 | 4 | 2 | 4
4 | CC(=O)NC[C@H]1CN(c2ccc(N3CCN(C(=O)c4ccc([N+](=O)[O-])o4)C(C)C3)c(F)c2)C(=O)O1 (stereo partly drawn) [Compound No. 69, (S)-N-[[3-[3-Fluoro-4-[N-1-[3-methyl-4-{2-furoyl-(5-nitro)}]-piperazinyl]phenyl]-2-oxo-5-oxazolidinyl]methyl]acetamide] | 0.5 | 8 µg/mL | 0.5 | 1 | 8 | 1 | 1 | 2 | 0.5
5 | CC(=O)NC[C@H]1CN(c2ccc(N3CCN(C(=O)c4cc([N+](=O)[O-])[nH]n4)CC3)c(F)c2)C(=O)O1 [Compound No. 31] | 4 | 1 µg/mL | 4 | >8 | 1 | >8 | >8 | 1 | >8
6 | CC(=O)NC[C@H]1CN(c2ccc(N3CCN(C(=O)c4ccc(NC(C)=O)s4)CC3)c(F)c2)C(=O)O1 [Compound No. 29, (S)-N-[[3-[3-Fluoro-1-[N-1-[4-{2-thiophenoyl-(5-acetamido)}]piperazinyl]phenyl]-2-oxo-5-oxazolidinyl]methyl]acetamide] | 4 | 0.5 µg/mL | 4 | 4 | 1 | 8 | 4 | 0.5 | 4
7 | O=C(CF)NC[C@H]1CN(c2ccc(N3CCC(Cc4ccc([N+](=O)[O-])o4)CC3)c(F)c2)C(=O)O1 [Compound No. 42, (S)-N-[[3-[3-Fluoro-4-[N-1-[4-{2-furyl(5-nitro)methyl}]piperinyl]phenyl]-2-oxo-5-oxazolidinyl]methyl]-fluoroacetamide] | 4 | 1 µg/mL | 4 | 4 | 2 | 4 | 2 | 0.5 | 2
8 | CC(=O)NC[C@H]1CN(c2ccc(N3CCN(Cc4coc([N+](=O)[O-])c4)CC3)c(F)c2)C(=O)O1 [Compound No. 8, (S)-N-[[3-[3-Fluoro-4-[N-1-[4-{3-furyl(5-nitro)methyl}]piperazinyl]phenyl]-2-oxo-5-oxazolidinyl]methyl]acetamide] | 8 | 8 µg/mL | 4 | 4 | 16 | 8 | 8 | 4 | 4
9 | CC(=O)NC[C@H]1CN(c2ccc(N3CCC(N(C)C(=O)c4ccc([N+](=O)[O-])s4)C3)c(F)c2)C(=O)O1 (stereo partly drawn) [Compound No. 91] | 0.5 | 1 µg/mL | 1 | <0.25 | 1 | <0.25 | <0.25 | <0.25 | <0.25
10 | CC(=O)NC[C@H]1CN(c2ccc(N3CCC(CN(C)Cc4ccc([N+](=O)[O-])o4)CC3)c(F)c2)C(=O)O1 [Compound No. 93] | 2 | 4 µg/mL | 4 | 1 | 4 | 2 | 1 | 1 | 1
11 | CC(=O)NC[C@H]1CN(c2ccc(N3CCC(NCc4ccc([N+](=O)[O-])s4)CC3)c(F)c2)C(=O)O1 [Compound No. 84, (S)-N-[[3-[3-Fluoro-4-[4-{N-thienyl-(5-nitro)methyl}-aminopiperidine-1-yl]phenyl]-2-oxo-5-oxazolidinyl]methyl]acetamide] | 1 | 2 µg/mL | 2 | 2 | 2 | 2 | 2 | 1 | 2
12 | CC(=O)NC[C@H]1CN(c2ccc(N3CCN(C(=O)c4ccc([N+](=O)[O-])o4)CC3)c(F)c2)C(=O)O1 [Compound No. 39, (S)-N-[[3-[3-Fluoro-4-[N-1-[4-{2-Furoyl-(5-nitro)acylic}]piperazinyl]phenyl]-2-oxo-5-oxazolidinyl]methyl]-acetamide] | 0.5 | 0.5 µg/mL | <0.125 | 0.25 | 4 | 0.5 | 0.5 | <0.125 | 0.25
13 | CC(=O)NC[C@H]1CN(c2ccc(N3CCC(CN(C)Cc4ccc([N+](=O)[O-])o4)CC3)c(F)c2)C(=O)O1 [Compound No. 95] | <0.25 | – | 0.5 | 1 | – | 1 | 1 | – | 0.5
